Tests used:
AnlO = type: cell-based, Bacillus anthracis
[1] = system: HIV-1-positive J1.1 cell line; type: cell-based
α-hemolysin = α-hemolysin (Staphylococcus aureus, UniProt P09616); type: cell-based
healthy macrophages = type: cell-based, human

α-hemolysin, sequence (P09616 27-319 limits assumed): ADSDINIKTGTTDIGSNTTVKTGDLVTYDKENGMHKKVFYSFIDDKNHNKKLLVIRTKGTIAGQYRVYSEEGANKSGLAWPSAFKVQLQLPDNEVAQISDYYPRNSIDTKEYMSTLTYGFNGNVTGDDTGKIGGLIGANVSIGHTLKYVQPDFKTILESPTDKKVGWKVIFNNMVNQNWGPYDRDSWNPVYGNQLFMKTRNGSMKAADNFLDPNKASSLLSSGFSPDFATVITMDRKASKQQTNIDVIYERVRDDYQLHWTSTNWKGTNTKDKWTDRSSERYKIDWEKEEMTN

Molecule	change of GFP-positive cell population (inhibition of cytolysis by anlO) (AnlO)	infectivity of virus generated in the presence of the compound [1]	number of GFP positive cells (α-hemolysin)	cytolysis, share of the cells (healthy macrophages) [%]	time to detection of cytolysis (healthy macrophages; 500 ng/ml) [days]
6-boc orthinine amide-β-cyclodextrin [6-BOCD]	doubling	no difference in infectivity	did not increase		
COc1ccc(C[C@H](N)C(=O)N[C@H]2[C@@H](O)[C@H](n3cnc4c(N(C)C)ncnc43)O[C@@H]2CO)cc1 [puromycin]				25	≤ 2
